Experimental data reported in patent publication EP0084516B1, “Anthelmintics” (CIBA-GEIGY AG, priority 1982, dated 1983).
Where “and” joins values, the source holds several entries; their conditions need not be identical. Equal entries are not always repeated.

Experiments:
Fasciola hepatica [1] = assay: Tests on sheep artificially infected with Fasciola hepatica metacercariae (faecal egg counts and adult fluke counts at autopsy); type: in vivo, Schafe; details: for Adulte Egel bei Autopsie Mittelwert: group mean
Description: Versuche an mit Fasciola hepatica infizierten Schafen
36 Schafe wurden artifiziell mit Metacercarien von Fasciola hepatica infiziert. Zu diesem Zweck wurden die Metacercarien in einer wäßrigen 0,4%igen Suspension von Carboxymethylcellulose direkt in den Rumen der Versuchstiere injiziert. Die Tiere wurden dann für die Medikierung in etwa gleichgroße Gruppen und in drei Kontrollgruppen eingeteilt. Nach 4 Wochen wurden die Wirkstoffe in Dosen von 5 bis 10 mg/kg Körpergewicht je nach vorgesehener Kombination an die Versuchstiere verabreicht.
Während des Versuchs wurden die Schafe in Gehegeboxen unter Normalbedingungen gehalten.
Zur Prüfung der Wirkung der einzelnen Wirkstoffkombinationen wurden mit einer Standardtechnik 12 bis 15 Wochen nach Infizierung bzw. 8 bis 11 Wochen nach Medikierung die von den Leberegeln abgelegten Eier im Kot gezählt. Anschließend wurden die Versuchstiere getötet, soweit sie nicht zur Gruppe B und Kontrollgrupe B' gehörten (Tiere Nr. 26-36), und es wurde die Zahl der vorhandenen Leberegel festgestellt.

[2] = system: 6wöchige und jüngere Leberegel; details: comparable dose; from Austral. Vet. J. 55, 431-432, 1979; Brit. Vet. J. 138,371-382, 1982; cited from earlier work
Fasciola hepatica [3] = assay: Tests on sheep artificially infected with Fasciola hepatica metacercariae (faecal egg counts and adult fluke counts at autopsy); type: in vivo, Schafe; details: B 4,6 mg/kg, individual sheep

SMILES: CSc1nc2cc(Cl)c(Oc3cccc(Cl)c3Cl)cc2[nH]1 [Substanz A, 5-Chlor-6-(2',3'-dichlorphenoxy)-2-methylthiobenzimidazol]
- Adulte Egel bei Autopsie Anzahl (Fasciola hepatica [1]; A 5,0 mg/kg, given 4 weeks after infection, individual sheep): 12 and 23 and 2 and 14 and 0
- EPG* 14. Woche (Fasciola hepatica [1]; A 5,0 mg/kg, given 4 weeks after infection, liver fluke eggs per g faeces, week 14 after infection, individual sheep): 65 pro gr Faeces and 60 pro gr Faeces and 0 pro gr Faeces (2×) and 10 pro gr Faeces
- EPG* 15. Woche (Fasciola hepatica [1]; A 5,0 mg/kg, given 4 weeks after infection, week 15 after infection, individual sheep): 125 pro gr Faeces and 60 pro gr Faeces and 5 pro gr Faeces and 0 pro gr Faeces (2×)
- Adulte Egel bei Autopsie Mittelwert (Fasciola hepatica [1]; A 5,0 mg/kg, sheep 1-5): 10,2
- Adulte Egel bei Autopsie % Reduktion (Fasciola hepatica [1]; A 5,0 mg/kg, versus untreated control A'): 89,4%

SMILES: CCCSc1ccc2nc(NC(=O)OC)[nH]c2c1 [Substanz B, [5-(Propylthio)-1 H-benzimidazol-2-yl]-carbaminsäuremethylester]
- Wirkung gegen 6wöchige und jüngere Leberegel [2]: unwirksam
- EPG* 12. Woche (Fasciola hepatica [3]; given 4 weeks after infection, week 12 after infection): 360 pro gr Faeces and 370 pro gr Faeces and 290 pro gr Faeces and 880 pro gr Faeces
- EPG* 13. Woche (Fasciola hepatica [3]; week 13 after infection): 1110 pro gr Faeces and 560 pro gr Faeces and 370 pro gr Faeces and 1280 pro gr Faeces

SMILES: COC(=O)Nc1nc2ccc(Sc3ccccc3)cc2[nH]1 [Substanz C, [5-(Phenylthio)-1 H-benzimidazol-2-yl]-carbaminsäuremethylester, reference compound]
- Adulte Egel bei Autopsie Anzahl (Fasciola hepatica [1]; C 5,0 mg/kg, given 4 weeks after infection, Tabelle 2, individual sheep): 54 and 77 and 82
- Adulte Egel bei Autopsie Mittelwert (Fasciola hepatica [1]; C 5,0 mg/kg, Tabelle 2, sheep 20-22): 71
- Adulte Egel bei Autopsie % Reduktion (Fasciola hepatica [1]; C 5,0 mg/kg, Tabelle 2, versus untreated control C'): 0%
